Where two headings read alike, the source gives them in different places. Ends that are not written are not given here.
System: two peptides with a FITC label covalently attached to each other via a disulfide bridge
Assay: Reductase activity of the peptides, fluorescent assay (Tomazzolli et al.)
Format: biochemical
[1] = compared with the control peptide without modified cysteine, DTT = 100% reducing activity, water = 0%

With “GW YRSPFSRVV HLYR CPY-C—NH-ethyl (GWYRSPFSRVVHLYRCPYC-NHEt; cysteine pairing not given here) [Peptide 30]” the oxidoreductase activity [1] was “slightly higher oxidoreductase activity than the control peptide”.

For “GWYRSPFSRVVHLYRCPYC-NH-methyl (GWYRSPFSRVVHLYRCPYC-NHMe; cysteine pairing not given here) [Peptide 29]”, the oxidoreductase activity [1] was “slightly higher oxidoreductase activity than the control peptide”.

For “N-Acetyl-CPYCSLQPLALEGSLQKRG (Ac-CPYCSLQPLALEGSLQKRG; not fully specified (C-terminus); printed as N-Acetyl-CPYCSLQPLALEGSLQKRG; cysteine pairing not given here) [Peptide 2]”, the oxidoreductase activity [1] was “higher oxidoreductase activity than the control peptide”.

“N-Acetyl-CPYCVQYIKANSKFIGITEL [Peptide 7]” was tested, and the oxidoreductase activity was “higher oxidoreductase activity than the control peptide”.

With “N-acetyl C-HGC GW YRSPFSRVV HLYR —NH2 [Peptide 27]” the oxidoreductase activity [1] was “higher activity than the control peptide”.

With “N-acetyl C-PYC GW YRSPFSRVV HLYR —NH2 [Peptide 22]” the oxidoreductase activity [1] was “higher oxidoreductase activity than the control peptide”.

For “N-ethyl C-PYC GW YRSPFSRVV HLYR —NH2 [Peptide 24]”, the oxidoreductase activity [1] was “no oxidoreductase activity”.

For “N-methyl C-PYC GW YRSPFSRVV HLYR —NH2 [Peptide 23]”, the oxidoreductase activity [1] was “equivalent activity as compared to the control peptide”.

“N-propionyl C-PYC GW YRSPFSRVV HLYR —NH2 [Peptide 25]” was tested, and the oxidoreductase activity [1] was “higher oxidoreductase activity than the control peptide”.

From patent US20230113747A1, “IMMUNOGENIC PEPTIDES WITH AN OXIDOREDUCTASE MOTIF COMPRISING A MODIFIED CYSTEINE” (priority 2019, published 2023)
